Source: ChEMBL document CHEMBL1201862, “PubChem BioAssay data set” (2004)
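Cells were grown in 96-well plates and exposed to each compound for 48 hours at five concentrations; endpoints were interpolated linearly between bracketing concentrations, or set to the highest concentration if not reached. The concentration for 50% growth inhibition is given as GI50.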 Calls of active or inactive are those of the source. Rule as the data show it: active = GI50 up to about 1.1 µM and inactive = higher.

Experiments:
Experiment in all cases: growth of human tumour cells (NCI), 48 h
LOX IMVI = system: LOX IMVI
A549 = system: A549
M14 = system: M14
DLD-1 = system: DLD-1
A498 = system: A498
SK-MEL-28 = system: SK-MEL-28
RPMI-8226 = system: RPMI-8226
DMS-273 = system: DMS-273
MOLT-4 = system: MOLT-4
CCRF-CEM = system: CCRF-CEM
COLO 205 = system: COLO 205
OVCAR-8 = system: OVCAR-8
SF-268 = system: SF-268
OVCAR-3 = system: OVCAR-3
RXF 393 = system: RXF 393
SR = system: SR

Measured: GI50

O=S(=O)(N/N=C\c1c2ccccc2[n+]([O-])c2ccccc12)c1ccc(Cl)cc1
inactive: LOX IMVI > 100 µM | A549 > 100 µM | M14 > 100 µM | DLD-1 > 100 µM | A498 > 100 µM | SK-MEL-28 > 100 µM | RPMI-8226 > 100 µM | DMS-273 93.3 µM | MOLT-4 58.6 µM | CCRF-CEM > 100 µM | COLO 205 > 100 µM | OVCAR-8 > 100 µM | SF-268 > 100 µM | OVCAR-3 > 100 µM

O=C(O)C12C3C4C1C1C2C3C41I (stereo not given)
inactive: LOX IMVI > 100 µM | A549 > 100 µM | M14 > 100 µM | DLD-1 > 100 µM | A498 > 100 µM | SK-MEL-28 > 100 µM | RPMI-8226 > 100 µM | DMS-273 > 100 µM | MOLT-4 > 100 µM | CCRF-CEM > 100 µM | COLO 205 > 100 µM | OVCAR-8 > 100 µM | SF-268 > 100 µM | OVCAR-3 > 100 µM

COC(=O)CC[C@@H](NC(=O)C(C)NC(=O)COC1C(O)C(COC(=O)CCCCCCCCCCNC(=O)c2ccc([N+](=O)[O-])c3[nH]c4cc(Br)ccc4c(=O)c23)OC(OCc2ccccc2)C1NC(C)=O)C(N)=O (stereo not given in full)
inactive: LOX IMVI 44.2 µM | A549 > 100 µM | M14 61.4 µM | RXF 393 56.6 µM | DLD-1 35.4 µM | SR 42.6 µM | SK-MEL-28 > 100 µM | RPMI-8226 39.7 µM | DMS-273 > 100 µM | MOLT-4 70.3 µM | CCRF-CEM > 100 µM | COLO 205 96.6 µM | OVCAR-8 > 100 µM | SF-268 57.4 µM | OVCAR-3 25.7 µM

CSc1ccc2c(cc1=O)[C@@H](NC(=O)c1cc(O)c(O)c(O)c1)CCc1cc(O)c(O)c(O)c1-2
inactive: A549 27.7 µM | M14 19.6 µM | DLD-1 21.2 µM | A498 > 100 µM | SR 18.6 µM | SK-MEL-28 32.3 µM | DMS-273 20.5 µM | MOLT-4 18.5 µM | CCRF-CEM 3.33 µM | COLO 205 28 µM | OVCAR-8 24 µM | SF-268 37.4 µM | OVCAR-3 31 µM

Cc1cc(C)c2c(c1C)CN1CN2Cc2c(C)c(C)cc(C)c21
inactive: LOX IMVI > 100 µM | A549 80.9 µM | M14 > 100 µM | RXF 393 4.38 µM | DLD-1 20.8 µM | SR > 100 µM | SK-MEL-28 > 100 µM | RPMI-8226 > 100 µM | DMS-273 6.56 µM | MOLT-4 > 100 µM | CCRF-CEM > 100 µM | COLO 205 45.6 µM | OVCAR-8 > 100 µM | SF-268 > 100 µM | OVCAR-3 18.9 µM

Cc1cc(=O)oc2c1cc(OCC(=O)OCCN1CCCCC1)c1occ(C)c12
inactive: LOX IMVI > 100 µM | A549 > 100 µM | M14 > 100 µM | RXF 393 > 100 µM | DLD-1 > 100 µM | A498 > 100 µM | SK-MEL-28 > 100 µM | RPMI-8226 > 100 µM | DMS-273 > 100 µM | MOLT-4 > 100 µM | CCRF-CEM > 100 µM | OVCAR-8 > 100 µM | OVCAR-3 > 100 µM

COc1ccc(S(=O)(=O)N/N=C(\C)CN2C(=O)c3ccccc3C2=O)cc1OC
inactive: A549 > 100 µM | M14 > 100 µM | DLD-1 > 100 µM | A498 > 100 µM | SR > 100 µM | SK-MEL-28 > 100 µM | RPMI-8226 > 100 µM | DMS-273 > 100 µM | MOLT-4 > 100 µM | CCRF-CEM > 100 µM | COLO 205 > 100 µM | OVCAR-8 > 100 µM | SF-268 > 100 µM | OVCAR-3 > 100 µM

S=c1c2ccccc2c(=S)n2n1CC=CC2
inactive: LOX IMVI > 100 µM | A549 > 100 µM | M14 > 100 µM | RXF 393 > 100 µM | DLD-1 > 100 µM | A498 76.2 µM | SK-MEL-28 > 100 µM | RPMI-8226 > 100 µM | DMS-273 > 100 µM | MOLT-4 > 100 µM | CCRF-CEM > 100 µM | COLO 205 > 100 µM | OVCAR-8 > 100 µM | SF-268 > 100 µM | OVCAR-3 > 100 µM

CC(NS(=O)(=O)c1ccc(Cl)cc1)C(=O)O (stereo not given)
inactive: LOX IMVI > 100 µM | A549 > 100 µM | M14 > 100 µM | RXF 393 > 100 µM | DLD-1 > 100 µM | A498 > 100 µM | SK-MEL-28 > 100 µM | RPMI-8226 > 100 µM | DMS-273 > 100 µM | MOLT-4 > 100 µM | CCRF-CEM > 100 µM | COLO 205 > 100 µM | OVCAR-8 > 100 µM | SF-268 > 100 µM | OVCAR-3 > 100 µM

NC(=O)COc1ccc(Br)cc1Br
inactive: A549 > 100 µM | M14 > 100 µM | DLD-1 > 100 µM | A498 > 100 µM | SR > 100 µM | SK-MEL-28 > 100 µM | RPMI-8226 51.9 µM | DMS-273 > 100 µM | MOLT-4 > 100 µM | COLO 205 > 100 µM | OVCAR-8 > 100 µM | SF-268 > 100 µM | OVCAR-3 > 100 µM

N#CC1CCCCC1NC1(C#N)CCCCC1 (stereo not given)
inactive: LOX IMVI > 100 µM | A549 > 100 µM | M14 > 100 µM | RXF 393 > 100 µM | DLD-1 > 100 µM | A498 > 100 µM | SK-MEL-28 > 100 µM | RPMI-8226 > 100 µM | DMS-273 > 100 µM | MOLT-4 > 100 µM | CCRF-CEM > 100 µM | COLO 205 > 100 µM | OVCAR-8 > 100 µM | SF-268 > 100 µM | OVCAR-3 > 100 µM

N/N=C(\c1nc2ccc(Cl)cc2nc1O)C(O)c1ccc(Cl)c(Cl)c1 (stereo not given)
inactive: LOX IMVI > 100 µM | A549 > 100 µM | M14 > 100 µM | RXF 393 > 100 µM | DLD-1 46.7 µM | SR > 100 µM | SK-MEL-28 > 100 µM | RPMI-8226 > 100 µM | DMS-273 81.1 µM | MOLT-4 > 100 µM | CCRF-CEM > 100 µM | COLO 205 88.3 µM | OVCAR-8 72.6 µM | SF-268 > 100 µM | OVCAR-3 > 100 µM

C/C=C1\CN2CCc3c([nH]c4ccccc34)C2CC1C(=O)OC (stereo not given)
inactive: LOX IMVI > 322 µM | A549 > 322 µM | RXF 393 > 322 µM | DLD-1 > 322 µM | SR > 322 µM | SK-MEL-28 > 322 µM | RPMI-8226 > 322 µM | DMS-273 > 322 µM | MOLT-4 > 322 µM | CCRF-CEM > 322 µM | COLO 205 > 322 µM | OVCAR-8 > 322 µM | SF-268 > 322 µM | OVCAR-3 > 322 µM

CC(=O)NC(CCCNC(=O)OCc1ccccc1)C(=O)NCc1ccccc1 (stereo not given)
inactive: LOX IMVI > 100 µM | A549 > 100 µM | M14 > 100 µM | RXF 393 > 100 µM | DLD-1 > 100 µM | A498 > 100 µM | SK-MEL-28 > 100 µM | RPMI-8226 > 100 µM | DMS-273 > 100 µM | MOLT-4 > 100 µM | CCRF-CEM > 100 µM | COLO 205 > 100 µM | OVCAR-8 > 100 µM | SF-268 > 100 µM | OVCAR-3 > 100 µM
